Reference: ChEMBL document CHEMBL4020831, “Discovery of GDC-0853: A Potent, Selective, and Noncovalent Bruton's Tyrosine Kinase Inhibitor in Early Clinical Development” (J Med Chem, 2018)
Activity calls are given as the source filed them. No cut-off for these calls is given here.

What was measured:
Rattus norvegicus [1] = assay: Antiinflammatory activity in Lewis rat collagen-induced arthritis model assessed as reduction in ankle cartilage damage at 0.06 to 16 mg/kg, po administered qd for 16 days; format: functional, organism-based
Salmonella typhimurium [2] = assay: Genotoxicity in Salmonella typhimurium TA97a after 48 to 72 hrs in presence of liver S9 fraction by Ames test; format: toxicity; details: salmonella enterica subsp. enterica serovar typhimurium
[3] = Half life in rat at 0.2 mg/kg, iv or 1 mg/kg, po administered as single dose via cassette dosing; format: ADME, organism-based; details: in vivo
[4] = Permeability across apical to basolateral in MDCK1 cells; format: ADME, cell-based, Canis lupus familiaris; details: dog, MDCK; read-out: permeability
Cav1.2 = Cav1.2 (Homo sapiens, UniProt Q13936); assay: Inhibition of human Cav1.2 expressed in CHO cells at 10 uM incubated for 3 to 5 mins by Qpatch clamp assay; format: cell-based; details: CHO cells expressing human Cav1.2
Chain of Cav1.2 (Q13936 whole entry): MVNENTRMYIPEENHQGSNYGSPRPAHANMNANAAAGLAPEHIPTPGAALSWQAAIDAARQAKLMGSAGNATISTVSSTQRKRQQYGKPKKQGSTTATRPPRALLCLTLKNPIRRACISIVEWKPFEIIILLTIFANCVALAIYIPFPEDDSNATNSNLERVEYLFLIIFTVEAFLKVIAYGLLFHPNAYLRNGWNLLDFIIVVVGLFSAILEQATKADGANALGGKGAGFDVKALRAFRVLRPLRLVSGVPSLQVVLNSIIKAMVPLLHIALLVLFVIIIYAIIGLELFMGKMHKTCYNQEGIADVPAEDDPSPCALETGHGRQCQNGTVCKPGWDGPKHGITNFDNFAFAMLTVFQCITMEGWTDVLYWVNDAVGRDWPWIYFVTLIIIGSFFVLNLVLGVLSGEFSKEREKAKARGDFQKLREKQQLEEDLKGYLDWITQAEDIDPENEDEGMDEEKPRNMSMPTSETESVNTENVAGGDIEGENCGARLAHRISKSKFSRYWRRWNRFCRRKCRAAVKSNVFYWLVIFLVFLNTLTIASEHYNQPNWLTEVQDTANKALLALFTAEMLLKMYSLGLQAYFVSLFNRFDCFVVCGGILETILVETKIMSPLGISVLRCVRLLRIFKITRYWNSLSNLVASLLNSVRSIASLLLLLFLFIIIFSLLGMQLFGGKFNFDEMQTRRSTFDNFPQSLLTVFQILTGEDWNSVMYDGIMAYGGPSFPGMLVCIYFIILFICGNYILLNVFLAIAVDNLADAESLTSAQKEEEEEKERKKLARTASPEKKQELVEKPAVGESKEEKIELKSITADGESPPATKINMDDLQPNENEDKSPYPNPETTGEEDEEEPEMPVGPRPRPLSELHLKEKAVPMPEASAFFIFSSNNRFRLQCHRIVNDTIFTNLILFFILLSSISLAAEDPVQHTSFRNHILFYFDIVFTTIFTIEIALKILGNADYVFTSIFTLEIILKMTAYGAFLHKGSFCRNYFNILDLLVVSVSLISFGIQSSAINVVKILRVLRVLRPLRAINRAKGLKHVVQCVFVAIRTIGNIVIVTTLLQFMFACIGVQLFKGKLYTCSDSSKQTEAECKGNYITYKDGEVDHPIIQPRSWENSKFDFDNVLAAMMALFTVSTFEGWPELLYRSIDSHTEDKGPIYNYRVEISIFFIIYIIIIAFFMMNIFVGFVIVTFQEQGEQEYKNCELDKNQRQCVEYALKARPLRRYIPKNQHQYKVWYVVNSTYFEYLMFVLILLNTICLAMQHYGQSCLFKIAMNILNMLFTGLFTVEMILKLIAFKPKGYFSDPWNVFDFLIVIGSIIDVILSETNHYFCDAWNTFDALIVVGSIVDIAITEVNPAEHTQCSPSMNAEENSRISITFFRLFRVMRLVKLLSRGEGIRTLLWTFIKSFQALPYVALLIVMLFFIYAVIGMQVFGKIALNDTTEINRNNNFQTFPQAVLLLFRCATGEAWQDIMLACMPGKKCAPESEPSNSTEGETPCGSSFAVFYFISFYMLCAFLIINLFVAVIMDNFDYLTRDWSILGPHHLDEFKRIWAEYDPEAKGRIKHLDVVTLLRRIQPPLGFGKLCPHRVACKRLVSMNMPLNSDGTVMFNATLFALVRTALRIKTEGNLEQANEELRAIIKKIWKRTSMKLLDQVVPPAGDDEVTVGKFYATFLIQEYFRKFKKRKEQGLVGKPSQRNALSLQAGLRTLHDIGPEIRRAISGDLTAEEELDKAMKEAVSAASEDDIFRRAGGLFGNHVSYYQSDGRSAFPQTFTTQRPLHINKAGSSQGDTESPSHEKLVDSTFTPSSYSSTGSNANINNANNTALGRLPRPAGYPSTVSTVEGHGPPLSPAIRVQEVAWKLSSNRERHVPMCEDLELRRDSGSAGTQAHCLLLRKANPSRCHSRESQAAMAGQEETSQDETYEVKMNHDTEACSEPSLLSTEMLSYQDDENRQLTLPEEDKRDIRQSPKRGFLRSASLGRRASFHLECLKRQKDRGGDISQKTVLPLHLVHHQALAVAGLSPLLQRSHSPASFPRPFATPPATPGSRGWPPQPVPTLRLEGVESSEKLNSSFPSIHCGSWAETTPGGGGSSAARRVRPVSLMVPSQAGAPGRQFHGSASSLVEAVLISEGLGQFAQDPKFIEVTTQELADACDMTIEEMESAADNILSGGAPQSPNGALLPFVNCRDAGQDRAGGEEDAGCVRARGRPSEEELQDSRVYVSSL

Salmonella typhimurium [5] = assay: Genotoxicity in Salmonella typhimurium TA98 after 48 to 72 hrs in absence of liver S9 fraction by Ames test; format: toxicity; details: salmonella enterica subsp. enterica serovar typhimurium
Rattus norvegicus [6] = assay: Antiinflammatory activity in Lewis rat collagen-induced arthritis model assessed as reduction in bone resorption at 0.06 to 16 mg/kg, po administered qd for 16 days; format: functional, organism-based
Rattus norvegicus [7] = assay: Time at which plasma concentration stays above IC90 for BTK autophosphorylation at Y223 in rat whole blood in Lewis rat collagen-induced arthritis model at 0.125 to 2 mg/kg, po bid measured during 12 hrs dosing
TXK = target: T1, TXK (Homo sapiens, UniProt P42681); assay: Inhibition of human full length GST-tagged TXK expressed in baculovirus at 1 uM by Z'-LYTE assay
T1 sequence (P42681 whole entry): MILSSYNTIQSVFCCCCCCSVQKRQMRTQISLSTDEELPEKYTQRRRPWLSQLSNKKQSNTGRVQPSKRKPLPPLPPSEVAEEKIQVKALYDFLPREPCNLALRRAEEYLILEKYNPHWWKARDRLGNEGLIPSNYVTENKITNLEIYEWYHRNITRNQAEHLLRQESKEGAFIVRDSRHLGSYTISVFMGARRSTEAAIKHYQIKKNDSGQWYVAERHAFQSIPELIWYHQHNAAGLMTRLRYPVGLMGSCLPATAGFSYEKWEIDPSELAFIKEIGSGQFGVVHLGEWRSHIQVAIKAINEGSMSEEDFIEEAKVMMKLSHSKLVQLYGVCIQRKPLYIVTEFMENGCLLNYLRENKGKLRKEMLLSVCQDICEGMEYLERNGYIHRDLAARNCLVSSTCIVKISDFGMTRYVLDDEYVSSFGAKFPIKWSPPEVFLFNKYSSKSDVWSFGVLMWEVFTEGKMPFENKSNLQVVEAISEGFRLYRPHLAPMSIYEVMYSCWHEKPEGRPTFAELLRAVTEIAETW

Homo sapiens [8] = assay: Toxicity in human at 500 mg administered qd for 14 days; details: in vivo, 336 h
[9] = Oral bioavailability in rat at 1 mg/kg administered as single dose via cassette dosing; format: ADME, organism-based; details: in vivo
Rattus norvegicus [10] = assay: Time at which plasma concentration stays above in vitro IC50 for BTK autophosphorylation at Y223 in rat whole blood in Lewis rat collagen-induced arthritis model at 1 to 16 mg/kg, po qd measured during 24 hrs dosing
Cytochrome P450 3A4 = Cytochrome P450 3A4 (Homo sapiens, UniProt P08684); assay: Inhibition of CYP3A4 (unknown origin); format: ADME
Chain of Cytochrome P450 3A4 (P08684 whole entry): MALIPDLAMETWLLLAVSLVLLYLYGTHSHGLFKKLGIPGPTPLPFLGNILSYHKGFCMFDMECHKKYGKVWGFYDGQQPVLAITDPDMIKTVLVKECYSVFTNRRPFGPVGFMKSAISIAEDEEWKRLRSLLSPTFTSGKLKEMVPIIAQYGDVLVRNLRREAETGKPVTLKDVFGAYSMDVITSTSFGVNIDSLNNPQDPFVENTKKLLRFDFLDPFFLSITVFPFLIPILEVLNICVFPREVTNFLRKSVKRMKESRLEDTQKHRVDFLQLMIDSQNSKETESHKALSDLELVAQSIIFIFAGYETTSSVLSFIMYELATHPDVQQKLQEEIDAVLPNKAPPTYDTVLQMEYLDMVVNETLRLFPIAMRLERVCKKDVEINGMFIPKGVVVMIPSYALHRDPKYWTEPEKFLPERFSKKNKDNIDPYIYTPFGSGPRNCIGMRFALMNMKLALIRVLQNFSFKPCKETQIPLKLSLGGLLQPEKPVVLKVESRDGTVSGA

[11] = Plasma clearance in rat at 0.2 mg/kg, iv or 1 mg/kg, po administered as single dose via cassette dosing; format: ADME, organism-based
Rattus norvegicus [12] = assay: Time at which plasma concentration stays above IC70 for BTK autophosphorylation at Y223 in rat whole blood in Lewis rat collagen-induced arthritis model at 0.5 mg/kg, po qd measured during 24 hrs dosing
Rattus norvegicus [13] = assay: Antiinflammatory activity in Lewis rat collagen-induced arthritis model assessed as reduction in ankle inflammation at 0.06 to 16 mg/kg, po administered qd for 16 days; format: functional, organism-based
Rattus norvegicus [14] = assay: Antiinflammatory activity in Lewis rat collagen-induced arthritis model assessed as reduction in ankle diameter AUC at 0.5 mg/kg, po administered bid for 16 days relative to control; format: functional; details: 384 h
Cytochrome P450 2C19 = Cytochrome P450 2C19 (Homo sapiens, UniProt P33261); assay: Inhibition of CYP2C19 (unknown origin); format: ADME
Chain of Cytochrome P450 2C19 (P33261 whole entry): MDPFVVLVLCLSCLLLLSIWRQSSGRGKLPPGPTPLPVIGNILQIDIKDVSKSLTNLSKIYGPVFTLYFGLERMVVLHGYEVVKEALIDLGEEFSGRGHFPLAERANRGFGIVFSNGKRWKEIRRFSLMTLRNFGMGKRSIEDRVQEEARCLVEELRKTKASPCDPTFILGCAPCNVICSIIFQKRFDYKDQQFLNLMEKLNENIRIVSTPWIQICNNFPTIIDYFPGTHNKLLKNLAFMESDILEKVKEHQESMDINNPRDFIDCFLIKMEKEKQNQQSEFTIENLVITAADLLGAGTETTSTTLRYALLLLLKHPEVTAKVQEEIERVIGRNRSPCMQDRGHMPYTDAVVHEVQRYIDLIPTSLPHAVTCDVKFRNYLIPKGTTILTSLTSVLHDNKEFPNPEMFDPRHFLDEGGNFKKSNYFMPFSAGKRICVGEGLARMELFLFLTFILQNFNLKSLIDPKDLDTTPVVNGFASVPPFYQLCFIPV

Escherichia coli = assay: Genotoxicity in Escherichia coli WP2 harboring uvrA deletion mutant after 48 to 72 hrs in presence of liver S9 fraction by Ames test; format: toxicity
PBL = assay: Genotoxicity in human PBL assessed as induction of micronuclei at 500 ug/ml in absence of rat liver S9 fraction by cytochalasin B-block method; format: toxicity, cell-based
Rattus norvegicus [15] = assay: Antiinflammatory activity in Lewis rat collagen-induced arthritis model assessed as reduction in ankle diameter AUC at 2 mg/kg, po administered bid for 16 days relative to control; format: functional; details: 384 h
Homo sapiens [16] = assay: Toxicity in human at 250 mg administered bid for 14 days; details: in vivo, 336 h
Rattus norvegicus [17] = assay: Antiinflammatory activity in Lewis rat collagen-induced arthritis model assessed as reduction in ankle diameter AUC at 16 mg/kg, po administered qd for 16 days relative to control; format: functional; details: 384 h
Rattus norvegicus [18] = assay: Antiinflammatory activity in po dosed Lewis rat collagen-induced arthritis model assessed as reduction in ankle thickness administered qd for 16 days; format: functional, organism-based
Salmonella typhimurium [19] = assay: Genotoxicity in Salmonella typhimurium TA1535 after 48 to 72 hrs in presence of liver S9 fraction by Ames test; format: toxicity; details: salmonella enterica subsp. enterica serovar typhimurium

## C[C@H]1CN(C2COC2)CCN1c1ccc(Nc2cc(-c3ccnc(N4CCn5c(cc6c5CC(C)(C)C6)C4=O)c3CO)cn(C)c2=O)nc1 [FENEBRUTINIB]
Rattus norvegicus [1]
  Activity: Active
Salmonella typhimurium [2]
  Activity: Non-Toxic
[3]
  half-life: 2.2 h
[4]
  Papp A→B: 15.1 ×10⁻⁶ cm/s
Cav1.2
  inhibition at 10 µM: 3.8%
Salmonella typhimurium [5]
  Activity: Non-Toxic
Rattus norvegicus [6]
  Activity: Active
Rattus norvegicus [7]
  Time: 6 h
TXK
  inhibition at 1 µM: 4%
Homo sapiens [8]
  Activity: Non-Toxic
[9]
  bioavailability: 65.1%
Rattus norvegicus [10]
  Time: 12 h
Cytochrome P450 3A4
  IC50: > 5 µM
[11]
  clearance: 27.4 mL/min/kg
Rattus norvegicus [12]
  Time: 12 h
Rattus norvegicus [13]
  Activity: Active
Rattus norvegicus [14]
  inhibition in vivo at 0.5 mg/kg: 79%
Cytochrome P450 2C19
  IC50: > 5 µM
Escherichia coli
  Activity: Non-Toxic
PBL
  Activity: Non-Toxic
Rattus norvegicus [15]
  inhibition in vivo at 2 mg/kg: 96%
Homo sapiens [16]
  Activity: Non-Toxic
Rattus norvegicus [17]
  inhibition in vivo at 16 mg/kg: 99%
Rattus norvegicus [18]
  Activity: Dose-dependent effect
Salmonella typhimurium [19]
  Activity: Non-Toxic
